According to patent US10202404B2, “Polycyclic pyridone derivative having integrase inhibitory activity” (Shionogi & Co., Ltd., priority 2014, dated 2019):
pEC50: −log10 of the molar value.

System: HIV
Experiment: Anti-HIV activity (MT-4 cells, MTT)
Format: cell-based
Conditions: 50% HIV inhibition concentration, MT-4 cells infected with HIV, incubated 4 days, MTT readout
Procedure: Previously, a series of two-fold dilution on test samples were carried out in a 96-well plate (50 μL/well). Two plates were made for measuring anti-HIV activity and measuring cytotoxicity. For each agent, measurement in duplicate was carried out. An MT-4 cell suspension of 2.5×10^5/mL was dispensed at 100 μL/well onto the 96-well plate containing the test samples. An HIV virus solution was dispensed at 50 μL/well onto the 96-well plate containing the test samples and the cell. To the plate for measuring cytotoxicity, a culture solution was dispensed at 50 μL/well. It was mixed by a plate mixer, and then incubated in a CO2 incubator for 4 days. […] Thirty microliters of a MTT (3-(4,5-dimethylthiazol-2-yl)-2,5-diphenyltetrazolium bromide) solution was dispensed to each well.
A reaction was allowed to occur in a CO2 incubator for an hour. From each well, 150 μL of the supernatant was removed such that cells are not sucked. One-hundred and fifty microliters of a cell lysis solution was added thereto, and then it was mixed well by a plate mixer until the whole cells are lysed. The mixed 96-well plates were measured by a microplate reader at two wavelengths, 560 nm/690 nm. Based on the following calculation formula, 50% HIV inhibition concentration (EC50) was calculated. EC50=10Z Z=(50%−Low %)/(High %−Low %)×{log(High conc.)−log(Low conc.)}+log(Low conc.) Based on the following calculation formula, 50% cytotoxic concentration (CC50) was calculated. CC50=10Z Z=(50%−Low %)/(High %−Low %)×{log(High conc.)−log(Low conc.)}+log(Low conc.) Based on the following calculation formula, selectivity index (ST) was calculated. SI=CC50/EC50 (Result)

[1] = Human immunodeficiency virus 1, MT4, 96 h

| pEC50 | Structure (SMILES) | pEC50 [1] |
| --- | --- | --- |
| – | O=C1c2c(O)c(=O)c(-c3nnc(Cc4ccc(F)cc4F)s3)cn2CC2OCC3(COC3)CN12 (centres unmarked) [Compound A-58] | 8.00 |
| – | Cc1nc(-c2cn3c(c(O)c2=O)C(=O)N2[C@H](C)CCO[C@H]2C3)cn1Cc1ccc(F)cc1F [Compound A-59] | 8.02 |
| – | C[C@H]1CN(C2CC2)[C@@H]2Cn3cc(-c4nnc(Cc5ccc(F)cc5F)s4)c(=O)c(O)c3C(=O)N12 [Compound A-60] | 8.70 |
| – | COCCN1CC[C@H](C)N2C(=O)c3c(O)c(=O)c(-c4nnc(Cc5ccc(F)cc5F)s4)cn3C[C@@H]12 [Compound A-61] | 8.39 |
| – | C[C@H]1[C@H]2CCCN2[C@@H]2Cn3cc(-c4nnc(Cc5ccc(F)cc5F)s4)c(=O)c(O)c3C(=O)N12 [Compound A-62] | 8.80 |
| – | O=C1c2c(O)c(=O)c(-c3nnc(Cc4ccc(F)cc4F)s3)cn2C[C@@H]2O[C@H]3CCC[C@H]3N12 [Compound A-63] | 8.70 |
| – | C[C@@H]1CCO[C@H]2Cn3cc(-c4cn(Cc5ccc(F)cc5F)cn4)c(=O)c(O)c3C(=O)N12 [Compound A-64] | 8.80 |
| – | O=C1c2c(O)c(=O)c(-c3nnc(Cc4ccc(F)cc4F)s3)cn2C[C@H]2O[C@@H]3CC[C@@H](C3)N12 [Compound A-65] | 8.38 |
| – | O=C1c2c(O)c(=O)c(-c3nnc(Cc4ccc(F)cc4F)s3)cn2C[C@@H]2O[C@H]3CC[C@H](C3)N12 [Compound A-66] | 8.14 |
| – | COC[C@@H]1CCO[C@H]2Cn3cc(-c4nnc(Cc5ccc(F)cc5F)s4)c(=O)c(O)c3C(=O)N12 [Compound A-67] | 8.38 |
| – | COC[C@@H]1CCN2C(=O)c3c(O)c(=O)c(-c4nnc(Cc5ccc(F)cc5F)s4)cn3C[C@@H]2O1 [Compound A-68] | 8.34 |
| – | COC[C@H]1CCN2C(=O)c3c(O)c(=O)c(-c4nnc(Cc5ccc(F)cc5F)s4)cn3C[C@H]2O1 [Compound A-69] | 8.29 |
| – | O=C1c2c(O)c(=O)c(-c3nnc(Cc4ccc(F)cc4F)s3)cn2C[C@H]2OCC[C@@H](C(F)(F)F)N12 [Compound A-70] | 8.10 |
| – | C[C@@H]1CCO[C@H]2Cn3cc(-c4cc(Cc5ccc(F)cc5F)sn4)c(=O)c(O)c3C(=O)N12 [Compound A-71] | 8.03 |
| – | C[C@@H]1CCO[C@H]2Cn3cc(-c4cn(Cc5ccc(F)cc5F)nn4)c(=O)c(O)c3C(=O)N12 [Compound A-72] | 8.07 |
| – | O=C1c2c(O)c(=O)c(-c3nnc(Cc4ccc(F)cc4F)s3)cn2C[C@H]2O[C@@H]3COC[C@@H]3N12 [Compound A-73] | 8.24 |
| – | O=C1c2c(O)c(=O)c(-c3nnc(Cc4ccc(F)cc4F)s3)cn2C[C@@H]2O[C@H]3COC[C@H]3N12 [Compound A-74] | 7.92 |
| – | COCc1cc(F)cc(F)c1Cc1nnc(-c2cn3c(c(O)c2=O)C(=O)N2[C@H](C)CCO[C@H]2C3)s1 [Compound A-75] | 8.00 |
| – | C[C@@H]1CCS[C@H]2Cn3cc(-c4nnc(Cc5ccc(F)cc5F)s4)c(=O)c(O)c3C(=O)N12 [Compound A-76] | 8.33 |
| – | C[C@@H]1N2C(=O)c3c(O)c(=O)c(-c4nnc(Cc5ccc(F)cc5F)s4)cn3C[C@H]2OCC1(F)F [Compound A-77] | 8.14 |
| – | C[C@H]1N2C(=O)c3c(O)c(=O)c(-c4nnc(Cc5ccc(F)cc5F)s4)cn3C[C@@H]2OCC1(F)F [Compound A-78] | 8.34 |
| – | C[C@@H]1CCO[C@H]2Cn3cc(-c4cc(Cc5ccc(F)cc5F)n(C)n4)c(=O)c(O)c3C(=O)N12 [Compound A-79] | 7.82 |
| – | Cc1nc(-c2cn3c(c(O)c2=O)C(=O)N2[C@H](C)CCO[C@H]2C3)sc1Cc1cccc(Cl)c1F [Compound A-80] | 8.20 |
| 8.54 | O=C1c2c(O)c(=O)c(-c3nnc(Cc4ccc(F)cc4F)s3)cn2C[C@@H]2CCCCN12 [Compound B-1] | – |
| – | O=C1c2c(O)c(=O)c(-c3nnc(Cc4ccc(F)cc4F)s3)cn2C[C@H]2CCCCN12 [Compound B-2] | 8.41 |
| – | O=C1c2c(O)c(=O)c(-c3nnc(Cc4ccc(F)cc4F)s3)cn2C[C@H]2CCCN12 [Compound B-3] | 8.43 |
